Measurements from US20250034110A1, “LPAR1 ANTAGONISTS AND USES THEREOF” (Pipeline Therapeutics, Inc., priority 2021, published 2025).

Target: human LPAR1 (Homo sapiens, UniProt Q92633)
Test: In vitro functional assay of lysophosphatidic acid receptor 1 activity (calcium flux)
Type: cell-based
Details: B103 cells stably expressing human LPAR1; calcium flux (Fluo-4 NW) after lysophosphatidic acid (18:1) at EC80; 100 pM to 10 μM; read-out: LPAR1 IC50

Sequence of human LPAR1 (Q92633 whole entry): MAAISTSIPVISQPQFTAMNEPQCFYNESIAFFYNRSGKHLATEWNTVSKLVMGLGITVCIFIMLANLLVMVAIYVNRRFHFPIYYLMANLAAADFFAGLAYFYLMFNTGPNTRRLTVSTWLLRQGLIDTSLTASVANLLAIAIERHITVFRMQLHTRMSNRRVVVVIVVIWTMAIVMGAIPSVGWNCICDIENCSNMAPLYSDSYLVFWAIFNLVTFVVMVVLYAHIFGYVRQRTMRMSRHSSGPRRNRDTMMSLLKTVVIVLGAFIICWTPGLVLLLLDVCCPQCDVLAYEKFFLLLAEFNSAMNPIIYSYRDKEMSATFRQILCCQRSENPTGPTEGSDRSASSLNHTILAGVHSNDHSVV

First: COc1ccc(NC(=O)N(c2ccccc2C(C)C)[C@H]2C[C@@]3(C[C@@H]3C(=O)O)C2)c(OC(F)F)n1 [Example 149]
Second: COc1ccc(NC(=O)N(c2ccccc2C(C)C)[C@H]2C[C@]3(C[C@H]3C(=O)O)C2)c(OC(F)F)n1 [Example 150]
The IC50 of the first is higher: 10 to 100 nM for the first, under 10 nM for the second.

First: COc1ccc(NC(=O)N(c2ccccc2C(C)C)[C@H]2C[C@H](C(=O)O)C2)c(OC(F)F)n1 [Example 151]
Second: COc1ccc(NC(=O)N(c2ccccc2C(C)C)[C@H]2C[C@@H](C(=O)O)C2)c(OC(F)F)n1 [Example 152]
The IC50 of the first is lower: 10 to 100 nM for the first, 100 to 1000 nM for the second. The first is the more potent here.

First: Cc1ccc(NC(=O)N(c2ccccc2C(C)C)[C@H]2CC[C@H](C(=O)O)CC2)c(OC(F)F)n1 [Example 155, trans-4-(3-(2-(difluoromethoxy)-6-methylpyridin-3-yl)-1-(2-isopropylphenyl)ureido)cyclohexane-1-carboxylic acid]
Second: [2H]C([2H])([2H])c1ccc(NC(=O)N(c2ccccc2C(C)C)[C@H]2CC[C@H](C(=O)O)CC2)c(OC(F)F)n1 [Example 156, trans-4-(3-(2-(difluoromethoxy)-6-(methyl-d3)pyridin-3-yl)-1-(2-isopropylphenyl)ureido)cyclohexane-1-carboxylic acid]
The IC50 of the first is higher: 10 to 100 nM for the first, under 10 nM for the second.

First: Cc1cc(OC(F)F)c(NC(=O)N(c2ccccc2C(C)C)[C@H]2CC[C@H](C(=O)O)CC2)cn1 [Example 157, trans-4-(3-(4-(difluoromethoxy)-6-methylpyridin-3-yl)-1-(2-isopropylphenyl)ureido)cyclohexane-1-carboxylic acid]
Second: Cc1ccc(NC(=O)N(c2ccccc2C(C)C)[C@H]2CC[C@H](CC(=O)O)CC2)c(OC(F)F)n1 [Example 165, 2-((1r,4r)-4-(3-(2-(difluoromethoxy)-6-methylpyridin-3-yl)-1-(2-isopropylphenyl)ureido)cyclohexyl)acetic acid]
The IC50 of the first is higher: 10 to 100 nM for the first, under 10 nM for the second.

`CC(C)c1ccccc1N(C(=O)Nc1ccc(Cl)c(F)c1)[C@H]1CC[C@H](C(=O)O)CC1` [Example 158, trans-4-(3-(4-chloro-3-fluorophenyl)-1-(2-isopropylphenyl)ureido)cyclohexane-1-carboxylic acid] and `Cc1ccc(NC(=O)N(c2ccccc2C(C)C)[C@H]2CC[C@@H](CC(=O)O)CC2)c(OC(F)F)n1` [Example 166, 2-((1s,4s)-4-(3-(2-(difluoromethoxy)-6-methylpyridin-3-yl)-1-(2-isopropylphenyl)ureido)cyclohexyl)acetic acid] fall in the same range of IC50: 10 to 100 nM for the first, 10 to 100 nM for the second.

`COC(=O)CC1CC(N(C(=O)Nc2ccc(C)nc2OC(F)F)c2ccccc2C(C)C)C1` (stereo not drawn) [Example 159, methyl 2-(3-(3-(2-(difluoromethoxy)-6-methylpyridin-3-yl)-1-(2-isopropylphenyl)ureido)cyclobutyl)acetate] and `CNC(=O)CC1CC(N(C(=O)Nc2ccc(C)nc2OC(F)F)c2ccccc2C(C)C)C1` (stereo not drawn) [Example 190, 2-(3-(3-(2-(difluoromethoxy)-6-methylpyridin-3-yl)-1-(2-isopropylphenyl)ureido)cyclobutyl)-N-methylacetamide] fall in the same range of IC50: 100 to 1000 nM for the first, 100 to 1000 nM for the second.

First: Cc1ccc(NC(=O)N(c2ccccc2C(C)C)C2CC(CC(=O)O)C2)c(OC(F)F)n1 (stereo not drawn) [Example 160, 2-(3-(3-(2-(difluoromethoxy)-6-methylpyridin-3-yl)-1-(2-isopropylphenyl)ureido)cyclobutyl)acetic acid]
Second: Cc1ccc(NC(=O)N(c2ccccc2C(C)C)[C@H]2C[C@H](CC(N)=O)C2)c(OC(F)F)n1 [Example 188]
The IC50 of the first is lower: under 10 nM for the first, 100 to 1000 nM for the second. The first is the more potent here.

First: Cc1ccc(NC(=O)N(c2ccccc2C(C)C)[C@H]2C[C@H](C(=O)O)C2)c(OC(F)F)n1 [Example 161, trans-3-(3-(2-(difluoromethoxy)-6-methylpyridin-3-yl)-1-(2-isopropylphenyl)ureido)cyclobutane-1-carboxylic acid]
Second: Cc1ccc(NC(=O)N(c2ccccc2C(C)C)[C@H]2C[C@@H](C(=O)O)C2)c(OC(F)F)n1 [Example 162, cis-3-(3-(2-(difluoromethoxy)-6-methylpyridin-3-yl)-1-(2-isopropylphenyl)ureido)cyclobutane-1-carboxylic acid]
The IC50 of the first is lower: 10 to 100 nM for the first, 100 to 1000 nM for the second.

Compared with `COC(=O)[C@H]1C[C@H](N(C(=O)Nc2cc(F)c(F)cc2OC(F)F)c2ccccc2C(C)C)C1` [Example 163, methyl (1r,3r)-3-(3-(2-(difluoromethoxy)-4,5-difluorophenyl)-1-(2-isopropylphenyl)ureido)cyclobutane-1-carboxylate], `CC(C)c1ccccc1N(C(=O)Nc1cc(F)c(F)cc1OC(F)F)[C@H]1C[C@H](C(=O)O)C1` [Example 164, trans-3-(3-(2-(difluoromethoxy)-4,5-difluorophenyl)-1-(2-isopropylphenyl)ureido)cyclobutane-1-carboxylic acid] is lower in IC50: over 1000 nM for the first, 10 to 100 nM for the second. The second is the more potent here.

`Cc1ccc(NC(=O)N(CC23CCC(C(=O)O)(CC2)CC3)c2ccccc2C(C)C)c(OC(F)F)n1` [Example 167] and `Cc1ccc(NC(=O)N(CC23CC(C(=O)O)(C2)C3)c2ccccc2C(C)C)c(OC(F)F)n1` [Example 173] fall in the same range of IC50: 10 to 100 nM for the first, 10 to 100 nM for the second.

First: Cc1ccc(NC(=O)N(CC23CC(C(=O)O)(CO2)C3)c2ccccc2C(C)C)c(OC(F)F)n1 [Example 168]
Second: Cc1ccc(NC(=O)N(CC2CC(C(=O)O)C2)c2ccccc2C(C)C)c(OC(F)F)n1 (stereo not drawn) [Example 170]
The IC50 of the first is higher: 10 to 100 nM for the first, under 10 nM for the second. The second is the more potent here.

`COC(=O)C1CC(CN(C(=O)Nc2ccc(C)nc2OC(F)F)c2ccccc2C(C)C)C1` (stereo not drawn) [Example 169] and `Cc1ccc(NC(=O)N(C[C@H]2CC[C@H](C(=O)O)CC2)c2ccccc2C(C)C)c(OC(F)F)n1` [Example 171] fall in the same range of IC50: 10 to 100 nM for the first, 10 to 100 nM for the second.

First: Cc1ccc(NC(=O)N(C[C@H]2CC[C@@H](C(=O)O)CC2)c2ccccc2C(C)C)c(OC(F)F)n1 [Example 172]
Second: Cc1ccc(NC(=O)N(c2ccccc2C(C)C)[C@H]2C[C@H](C(N)=O)C2)c(OC(F)F)n1 [Example 186, (1r,3r)-3-(3-(2-(difluoromethoxy)-6-methylpyridin-3-yl)-1-(2-isopropylphenyl)ureido)cyclobutane-1-carboxamide]
The IC50 of the first is lower: 10 to 100 nM for the first, over 1000 nM for the second. The first is the more potent here.

`Cc1ccc(NC(=O)N(c2ccccc2C(C)C)C2CN(CCC3(C(=O)O)CCC3)C2)c(OC(F)F)n1` [Example 174] and `Cc1ccc(NC(=O)N(c2ccccc2C(C)C)[C@H]2C[C@@H](CC(N)=O)C2)c(OC(F)F)n1` [Example 189] fall in the same range of IC50: 100 to 1000 nM for the first, 100 to 1000 nM for the second.

First: CC(C)c1ccccc1N(C(=O)Nc1ncc(Cl)cc1OC(F)F)C1CC(CC(=O)O)C1 (stereo not drawn) [Example 175, 2-(3-(3-(5-chloro-3-(difluoromethoxy)pyridin-2-yl)-1-(2-isopropylphenyl)ureido)cyclobutyl)acetic acid]
Second: CC(C)c1ccccc1N(C(=O)Nc1ncc(Br)cc1OC(F)F)C1CC(CC(=O)O)C1 (stereo not drawn) [Example 176]
The IC50 of the first is lower: under 10 nM for the first, 10 to 100 nM for the second. The first is the more potent here.

First: COC(=O)C1CC(N(C(=O)Nc2ncc(Br)cc2OC(F)F)c2ccccc2C(C)C)C1 (stereo not drawn) [Example 177]
Second: Cc1ccc(NC(=O)N(c2ccccc2C(C)C)[C@H]2C[C@@H](C(N)=O)C2)c(OC(F)F)n1 [Example 187]
The IC50 of the first is lower: 10 to 100 nM for the first, over 1000 nM for the second.

First: Cc1ccc(NC(=O)N(c2ccccc2C(C)C)[C@H]2C[C@H](O)C2)c(OC(F)F)n1 [Example 181]
Second: Cc1ccc(NC(=O)N(c2ccccc2C(C)C)[C@H]2C[C@@H](O)C2)c(OC(F)F)n1 [Example 182]
The IC50 of the first is lower: 10 to 100 nM for the first, 100 to 1000 nM for the second.

`Cc1ccc(NC(=O)N(c2ccccc2C(C)C)[C@H]2C[C@H](Cc3nnn[nH]3)C2)c(OC(F)F)n1` [Example 191, 1-((1r,3r)-3-((1H-tetrazol-5-yl)methyl)cyclobutyl)-3-(2-(difluoromethoxy)-6-methylpyridin-3-yl)-1-(2-isopropylphenyl)urea] and `Cc1ccc(NC(=O)N(c2ccccc2C(C)C)[C@H]2C[C@@H](Cc3nnn[nH]3)C2)c(OC(F)F)n1` [Example 192] fall in the same range of IC50: 10 to 100 nM for the first, 10 to 100 nM for the second.

`Cc1ccc(NC(=O)N(c2ccccc2C(C)C)[C@H]2C[C@@H](CO)C2)c(OC(F)F)n1` [Example 193, 3-(2-(difluoromethoxy)-6-methylpyridin-3-yl)-l-((1 s,3s)-3-(hydroxymethyl)cyclobutyl)-1-(2-isopropylphenyl)urea] and `Cc1ccc(NC(=O)N(c2ccccc2C(C)C)C2CC(C=O)C2)c(OC(F)F)n1` (stereo not drawn) [Example 194, 3-(2-(difluoromethoxy)-6-methylpyridin-3-yl)-1-(3-formylcyclobutyl)-1-(2-isopropylphenyl)urea] fall in the same range of IC50: 100 to 1000 nM for the first, 100 to 1000 nM for the second.

First: Cc1ccc(NC(=O)N(c2ccccc2C(C)C)C2CC(=O)C2)c(OC(F)F)n1 [Example 195]
Second: Cc1ccc(NC(=O)N(c2ccccc2C(C)C)C2CC(O)(C(F)(F)F)C2)c(OC(F)F)n1 (stereo not drawn) [Example 196, 3-(2-(difluoromethoxy)-6-methylpyridin-3-yl)-1-(3-hydroxy-3-(trifluoromethyl)cyclobutyl)-1-(2-isopropylphenyl)urea]
The IC50 of the first is lower: 10 to 100 nM for the first, over 1000 nM for the second.

Same assay, conditions: LPAR1 IC50

First: CC(=O)N1CCC(N(C(=O)Nc2ncc(Br)nc2OC(F)F)c2ccccc2C(C)C)CC1 [Example 184, 1-(1-acetylpiperidin-4-yl)-3-(5-bromo-3-(difluoromethoxy)pyrazin-2-yl)-1-(2-isopropylphenyl)urea]
Second: CC(=O)N1CCC(N(C(=O)Nc2cc(F)c(Br)nc2OC(F)F)c2ccccc2C(C)C)CC1 [Example 217]
The IC50 of the first is higher: 100 to 1000 nM for the first, 10 to 100 nM for the second. The second is the more potent here.

First: COc1nc(C#N)ccc1NC(=O)N(c1ccccc1C(C)C)C1CCN(C(C)=O)CC1 [Example 185, 1-(1-acetylpiperidin-4-yl)-3-(6-cyano-2-methoxypyridin-3-yl)-1-(2-isopropylphenyl)urea]
Second: CC(=O)N1CCC(N(C(=O)Nc2ccc(C)[n+]([O-])c2OC(F)F)c2ccccc2C(C)C)CC1 [Example 197, 3-(3-(1-acetylpiperidin-4-yl)-3-(2-isopropylphenyl)ureido)-2-(difluoromethoxy)-6-methylpyridine 1-oxide]
The IC50 of the first is lower: 100 to 1000 nM for the first, over 1000 nM for the second. The first is the more potent here.

With `CC(=O)N1CCC(N(C(=O)Nc2cc(F)c(C)nc2OC(F)F)c2ccccc2C(C)C)CC1` [Example 218, 1-(1-acetylpiperidin-4-yl)-3-(2-(difluoromethoxy)-5-fluoro-6-methylpyridin-3-yl)-1-(2-isopropylphenyl)urea] the IC50 was 10 to 100 nM.
